Activity calls are given as the source filed them. How the calls were made is not given here.

Our source for the mutagenic call values is PubChem BioAssay AID1259407 (Chemical Carcinogenesis Research Information System (CCRIS), 2018).

This series relates to CCRIS mutagenicity, Ames/micronucleus/aberration tests. Nature of the series: CCRIS mutagenicity studies.
Where [1] appears, read: Test System: AMES SALMONELLA TYPHIMURIUM, Strain/Indicator: TA100, Metabolic Activation: NONE, Method: PREINCUBATION

In the case of `COc1cc2nc3cc(N)c(OC)cc3nc2cc1N`, the mutagenic call (Test System: AMES SALMONELLA TYPHIMURIUM, Strain/Indicator: TA98, Metabolic Activation: S-9, Method: SUSPENSION/PLATE) is “active; positive”.
In the case of `O=[N+]([O-])c1cccc2oc3ccccc3c12`, the mutagenic call is, setting by setting: (Test System: AMES SALMONELLA TYPHIMURIUM, Strain/Indicator: TA98(1,8-DNP6), Metabolic Activation: NONE, Method: PREINCUBATION) “inactive; negative”; (Test System: AMES SALMONELLA TYPHIMURIUM, Strain/Indicator: TA98(1,8-DNP6), Metabolic Activation: NONE, Method: SUSPENSION) “inactive; negative”; (Test System: AMES SALMONELLA TYPHIMURIUM, Strain/Indicator: TA98(1,8-DNP6), Metabolic Activation: RAT, LIVER, S-9, PCB (5%), Method: PREINCUBATION) “inactive; negative”; (Test System: AMES SALMONELLA TYPHIMURIUM, Strain/Indicator: TA98(NR), Metabolic Activation: NONE, Method: PREINCUBATION) “inactive; negative”; (Test System: AMES SALMONELLA TYPHIMURIUM, Strain/Indicator: TA98(NR), Metabolic Activation: NONE, Method: SUSPENSION) “inactive; negative”; (Test System: AMES SALMONELLA TYPHIMURIUM, Strain/Indicator: TA98(NR), Metabolic Activation: RAT, LIVER, S-9 (10%), Method: PREINCUBATION) “inactive; negative”. For the same molecule, the mutagenic call is “active; positive” (Test System: AMES SALMONELLA TYPHIMURIUM, Strain/Indicator: TA98(NR), Metabolic Activation: RAT, LIVER, S-9, 3-METHYLCHOLANTHRENE (10%), Method: PREINCUBATION); “inactive; negative” (Test System: AMES SALMONELLA TYPHIMURIUM, Strain/Indicator: TA98(NR), Metabolic Activation: RAT, LIVER, S-9, BETA-NAPHTHOFLAVONE (10%), Method: PREINCUBATION); “inactive; negative” (Test System: AMES SALMONELLA TYPHIMURIUM, Strain/Indicator: TA98(NR), Metabolic Activation: RAT, LIVER, S-9, PCB (5%), Method: PREINCUBATION); “inactive; negative” (Test System: AMES SALMONELLA TYPHIMURIUM, Strain/Indicator: TA98(NR), Metabolic Activation: RAT, LIVER, S-9, PCB (10%), Method: PREINCUBATION); “inactive; negative” (Test System: AMES SALMONELLA TYPHIMURIUM, Strain/Indicator: TA98(NR), Metabolic Activation: RAT, LIVER, S-9, PHENOBARBITAL (10%), Method: PREINCUBATION); “inactive; negative” (Test System: AMES SALMONELLA TYPHIMURIUM, Strain/Indicator: TA98, Metabolic Activation: NONE, Method: PREINCUBATION). For the same molecule, the mutagenic call is, setting by setting: (Test System: AMES SALMONELLA TYPHIMURIUM, Strain/Indicator: TA98, Metabolic Activation: NONE, Method: SUSPENSION) “inactive; negative”; (Test System: AMES SALMONELLA TYPHIMURIUM, Strain/Indicator: TA98, Metabolic Activation: RAT, LIVER, S-9, PCB (5%), Method: PREINCUBATION) “inactive; negative”; (Test System: AMES SALMONELLA TYPHIMURIUM, Strain/Indicator: TA98, Metabolic Activation: RAT, LIVER, S-9, PCB, Method: SUSPENSION) “inactive; negative”; under setting [1], “inactive; negative”; (Test System: AMES SALMONELLA TYPHIMURIUM, Strain/Indicator: TA100, Metabolic Activation: NONE, Method: SUSPENSION) “inactive; negative”; (Test System: AMES SALMONELLA TYPHIMURIUM, Strain/Indicator: TA100, Metabolic Activation: RAT, LIVER, S-9, PCB (5%), Method: PREINCUBATION) “inactive; negative”. Moreover, the mutagenic call (Test System: AMES SALMONELLA TYPHIMURIUM, Strain/Indicator: TA100, Metabolic Activation: RAT, LIVER, S-9, PCB, Method: SUSPENSION) was “inactive; negative”.
In the case of `CC(=O)O[C@@]1(C)C(=O)OC/C2=C/CN(C)CC[C@@H](OC(=O)[C@]3(C[C@H]1C)O[C@@H]3C)C2=O`, for the setting “Test System: UDS RAT HEPATOCYTES, Strain/Indicator: THY INCORP, Metabolic Activation: NONE, Method: AUTORADIOGRAPHY”, the mutagenic call is “active; positive”.
As for `C(CCOCC1CO1)COCC1CO1` (stereo not given), the mutagenic call by setting is: (Test System: AMES SALMONELLA TYPHIMURIUM, Strain/Indicator: TA100, Metabolic Activation: HAMSTER, LIVER, S-9, AROCLOR 1254 (10%), Method: PREINCUBATION) “active; positive”; under setting [1], “active; positive”; (Test System: AMES SALMONELLA TYPHIMURIUM, Strain/Indicator: TA100, Metabolic Activation: RAT, LIVER, S-9, AROCLOR 1254 (10%), Method: PREINCUBATION) “active; positive”; (Test System: AMES SALMONELLA TYPHIMURIUM, Strain/Indicator: TA1535, Metabolic Activation: HAMSTER, LIVER, S-9, AROCLOR 1254 (10%), Method: PREINCUBATION) “active; positive”; (Test System: AMES SALMONELLA TYPHIMURIUM, Strain/Indicator: TA1535, Metabolic Activation: NONE, Method: PREINCUBATION) “active; positive”; (Test System: AMES SALMONELLA TYPHIMURIUM, Strain/Indicator: TA1535, Metabolic Activation: RAT, LIVER, S-9, AROCLOR 1254 (10%), Method: PREINCUBATION) “active; positive”.
As for `O=C1c2c(O)ccc(O)c2C(=O)C2C(O)=CC=C(O)C12` (stereo not given), the mutagenic call by setting is: (Test System: AMES SALMONELLA TYPHIMURIUM, Strain/Indicator: TA98, Metabolic Activation: NONE, Method: STANDARD PLATE) “inactive; negative”; (Test System: AMES SALMONELLA TYPHIMURIUM, Strain/Indicator: TA98, Metabolic Activation: RAT, LIVER, S-9, AROCLOR 1254, Method: STANDARD PLATE) “inactive; negative”; (Test System: AMES SALMONELLA TYPHIMURIUM, Strain/Indicator: TA100, Metabolic Activation: NONE, Method: STANDARD PLATE) “inactive; negative”; (Test System: AMES SALMONELLA TYPHIMURIUM, Strain/Indicator: TA100, Metabolic Activation: RAT, LIVER, S-9, AROCLOR 1254, Method: STANDARD PLATE) “inactive; negative”; (Test System: AMES SALMONELLA TYPHIMURIUM, Strain/Indicator: TA1535, Metabolic Activation: NONE, Method: STANDARD PLATE) “inactive; negative”; (Test System: AMES SALMONELLA TYPHIMURIUM, Strain/Indicator: TA1535, Metabolic Activation: RAT, LIVER, S-9, AROCLOR 1254, Method: STANDARD PLATE) “inactive; negative”. Moreover, the mutagenic call reads like this: (Test System: AMES SALMONELLA TYPHIMURIUM, Strain/Indicator: TA1537, Metabolic Activation: NONE, Method: STANDARD PLATE) “active; positive”; (Test System: AMES SALMONELLA TYPHIMURIUM, Strain/Indicator: TA1538, Metabolic Activation: RAT, LIVER, S-9, AROCLOR 1254, Method: STANDARD PLATE) “inactive; negative”.
